# Laboratory results: patent US10112941B2, “Tricyclic compounds as anticancer agents” (BRISTOL-MYERS SQUIBB COMPANY, priority 2013, dated 2018)
# Biological target: BRD4 (Homo sapiens, UniProt O60885)
# Experiment: Time Resolved Fluorescence Resonance Energy Transfer (TR-FRET) binding assay, BRD4
# Settings: one of the FRET assays described; read-out: FRET BRD4 IC50
row,SMILES,IC50 [nM]
1,"Cc1noc(C)c1-c1cnc2c3ccc(C(C)(C)O)cc3n(C(c3ncccc3F)C3CCOCC3)c2c1 (single isomer, unassigned) [Example 345, 2-[3-(Dimethyl-1,2-oxazol-4-yl)-5-[(3-fluoropyridin-2-yl)(oxan-4-yl)methyl]-5H-pyrido[3,2-b]indol-7-yl]propan-2-ol]",< 5
2,"Cc1noc(C)c1-c1cnc2c3ccc(C(C)(C)O)cc3n(C(c3ncccc3F)C3CCOCC3)c2c1 (single isomer, unassigned) [Example 346, 2-[3-(Dimethyl-1,2-oxazol-4-yl)-5-[(3-fluoropyridin-2-yl)(oxan-4-yl)methyl]-5H-pyrido[3,2-b]indol-7-yl]propan-2-ol]",< 5
3,"Cc1noc(C)c1-c1cnc2c3ccc(C(O)CC#N)cc3n([C@H](c3ccccc3)C3CCOCC3)c2c1 (single isomer, unassigned) [Example 373]",< 5
4,"Cc1noc(C)c1-c1cnc2c3ccc(C(O)CC#N)cc3n([C@H](c3ccccc3)C3CCOCC3)c2c1 (single isomer, unassigned) [Example 374]",< 5
5,"Cc1nnn(C)c1-c1cnc2c3ccc(C(C)(C)O)cc3n(C(CC3CC3)C3CCOCC3)c2c1 (single isomer, unassigned) [Example 394]",< 5
6,"Cc1nnn(C)c1-c1cnc2c3ccc(C(C)(C)O)cc3n(C(CC3CC3)C3CCOCC3)c2c1 (single isomer, unassigned) [Example 395]",< 5
7,"Cc1nnn(C)c1-c1cnc2c3ccc(C(C)(C)O)cc3n(C(c3ccc(Cl)cc3)C3CCOCC3)c2c1 (single isomer, unassigned) [Example 398]",< 5
8,"Cc1nnn(C)c1-c1cnc2c3ccc(C(C)(C)O)cc3n(C(c3ccc(Cl)cc3)C3CCOCC3)c2c1 (single isomer, unassigned) [Example 399]",< 5
9,"Cc1nnn(C)c1-c1cnc2c3ccc(C(C)(C)O)cc3n(C(c3cccc(Cl)c3)C3CCOCC3)c2c1 (single isomer, unassigned) [Example 400]",< 5
10,"Cc1nnn(C)c1-c1cnc2c3ccc(C(C)(C)O)cc3n(C(c3cccc(Cl)c3)C3CCOCC3)c2c1 (single isomer, unassigned) [Example 401]",< 5
11,"Cc1nnn(C)c1-c1cnc2c3ccc(C(C)(C)O)cc3n(C(c3ccccc3Cl)C3CCOCC3)c2c1 (single isomer, unassigned) [Example 402]",< 5
12,"Cc1nnn(C)c1-c1cnc2c3ccc(C(C)(C)O)cc3n(C(c3ccccc3Cl)C3CCOCC3)c2c1 (single isomer, unassigned) [Example 403]",< 5
13,"Cc1nnn(C)c1-c1cnc2c3ccc(C(C)(O)C4CC4)cc3n([C@H](c3ccccc3)C3CCOCC3)c2c1 (single isomer, unassigned) [Example 422]",< 5
14,"Cc1nnn(C)c1-c1cnc2c3ccc(C(C)(O)C4CC4)cc3n([C@H](c3ccccc3)C3CCOCC3)c2c1 (single isomer, unassigned) [Example 423]",< 5
15,"Cc1nnn(C)c1-c1cnc2c3ccc(C(C)(O)C4CC4)c(F)c3n([C@H](c3ccccc3F)C3CCOCC3)c2c1 (single isomer, unassigned) [Example 435]",< 5
16,"[2H]C([2H])([2H])c1nnn(C)c1-c1cnc2c3ccc(C(C)(O)C4CC4)c(F)c3n([C@H](c3ccccc3F)C3CCOCC3)c2c1 (single isomer, unassigned) [Example 438]",< 5
17,"Cc1nnn(C)c1-c1cnc2c3ccc(C(C)(O)C(F)(F)F)c(F)c3n([C@H](c3ccccc3)C3CCOCC3)c2c1 (single isomer, unassigned) [Example 441]",< 5
18,"Cc1nnn(C)c1-c1cnc2c3cc(F)c(C(C)(O)C4CC4)cc3n([C@H](c3ccccc3)C3CCOCC3)c2c1 (single isomer, unassigned) [Example 443]",< 5
19,"Cc1nnn(C)c1-c1cnc2c3cc(F)c(C(C)(O)C4CC4)cc3n([C@H](c3ccccc3)C3CCOCC3)c2c1 (single isomer, unassigned) [Example 444]",< 5
